In patent US5929056A, “Vitamin D compounds and method of preparing these compounds” (Duphar International Research B.V., priority 1994, dated 1999):

How the values were obtained:
[1] = system: human leukemic cell line HL-60; experiment: Cell differentiation in HL-60 assay (NBT reduction); type: cell-based; conditions: for concentration of optimum differentiating effect / NBT-reduction inducing capacity relative to the known 1α,25-DHCC: HL-60 cells; for concentration of optimum differentiating effect / induction of differentiation and maturation of HL-60 cells: NBT reduction; for induction of differentiation and maturation of HL-60 cells: 10^-12 to 10^-6 M; for NBT-reduction inducing capacity relative to the known 1α,25-DHCC: FIGS. 2 and 3, potency ratio versus 1α,25-DHCC
Description: Vitamin D compounds according to the invention are dissolved in ethanol in concentrations ranging from 10^-12 to 10^-6 M and tested for their capacity to induce cell differentiation in a HL-60 assay. In this assay, biochemical examination of the human leukemic cell line HL-60 is done, in order to establish whether cell differentiation has taken place.
Differentiation is expressed as the maturation parameter nitroblue tetrazolium (NBT) reduction. After culturing with the known 1α,25-DHCC or with vitamin D compounds of the invention, the percentage of cells containing black formazan deposits is determined. An increase in the percentage of NBT reducing cells indicates an increase in cell differentiation.

[2] = target: T1, calf thymus intracellular vitamin D receptor (VDR) (Bos taurus, UniProt Q28037); experiment: Affinity to intracellular vitamin D receptor (displacement of 3H-1α,25-DHCC); type: binding; conditions: 10^-13 to 10^-7 M, compared with 1α,25-dihydroxycholecalciferol
T1 sequence (Q28037 1-426): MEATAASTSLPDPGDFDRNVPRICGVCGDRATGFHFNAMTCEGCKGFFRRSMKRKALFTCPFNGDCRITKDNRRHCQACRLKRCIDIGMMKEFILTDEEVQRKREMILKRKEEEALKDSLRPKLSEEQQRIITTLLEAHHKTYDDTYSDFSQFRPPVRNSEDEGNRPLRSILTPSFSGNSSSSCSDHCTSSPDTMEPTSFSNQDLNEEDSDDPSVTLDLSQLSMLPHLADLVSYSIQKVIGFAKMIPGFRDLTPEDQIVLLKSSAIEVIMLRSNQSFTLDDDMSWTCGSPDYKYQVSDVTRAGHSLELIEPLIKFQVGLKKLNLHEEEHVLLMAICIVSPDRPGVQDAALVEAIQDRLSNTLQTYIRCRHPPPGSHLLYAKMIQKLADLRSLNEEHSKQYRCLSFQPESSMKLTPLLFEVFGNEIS
Source text: Affinity to intracellular vitamin D receptor.
In this assay, ^3 H-1α,25-dihydroxycholecalciferol (^3 H-1α,25-DHCC), which is specifically bound to the VDR, is replaced by the tested compounds. […] A high VDR-affinity is indicative for a biologically active substance. The tested compounds 21 and 28 have moderate VDR-affinities, whereas tested compound 36 has a weak VDR-affinity.

[3] = target: T2, human vitamin D binding protein (DBP) (Homo sapiens, UniProt P02774); experiment: Affinity to vitamin D binding protein (competition with 3H-1α,25-DHCC); conditions: DBP purified from total human serum; 10^-11 to 2.5×10^-6 M; compared to 1α,25-DHCC; FIG. 1
T2 construct: pooled Gc allotypes not specified
T2 sequence (P02774 17-474): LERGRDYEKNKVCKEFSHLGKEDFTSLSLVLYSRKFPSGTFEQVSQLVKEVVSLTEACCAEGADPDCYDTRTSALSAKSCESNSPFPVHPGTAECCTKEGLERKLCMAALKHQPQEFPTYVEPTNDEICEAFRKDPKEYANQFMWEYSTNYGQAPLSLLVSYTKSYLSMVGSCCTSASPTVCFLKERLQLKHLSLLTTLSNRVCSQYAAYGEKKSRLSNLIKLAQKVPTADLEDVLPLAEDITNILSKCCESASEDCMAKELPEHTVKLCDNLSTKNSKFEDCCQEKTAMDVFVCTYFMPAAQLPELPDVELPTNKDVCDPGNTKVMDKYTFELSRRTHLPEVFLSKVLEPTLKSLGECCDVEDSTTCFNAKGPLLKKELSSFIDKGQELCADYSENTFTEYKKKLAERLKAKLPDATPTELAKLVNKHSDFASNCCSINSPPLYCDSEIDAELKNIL
Source text: Affinity to vitamin D binding protein.
Vitamin D binding protein (DBP) is the specific carrier for vitamin D and its metabolites in blood. The biological activity of vitamin D compounds depends on their binding to DBP, because strong binding to DBP will reduce the intracellular access to the VDR. Binding to the DBP may also influence the half-life of the vitamin D derivatives in circulation. Weak binders are rapidly metabolized, which is a favourable aspect in topical application.
In the assay, DBP is incubated with ^3 H-1α,25-DHCC and 1α,25-DHCC or with several vitamin D compounds according to the invention. To this purpose, the vitamin compounds are dissolved in ethanol in concentrations ranging from 10^-11 to 2.5×10^-6 M. The percentage bound/unbound ^3 H-1α,25-DHCC is then calculated. DBP is purified from total human serum. The results are shown in the appended FIG. 1. […] [^3 H]1α,25(OH)2 D3 =^3 H-1α,25-DHCC; in the Figure .cndot.=1α,25-DHCC (known compound); .quadrature.=compound 21; Δ=compound 28; o=compound 32 and .diamond.=compound 36.

SMILES	VDR-affinity [2]	binding to the DBP [3]	concentration of optimum differentiating effect [1]	induction of differentiation and maturation of HL-60 cells [1]	NBT-reduction inducing capacity relative to the known 1α,25-DHCC [1]
C=C1/C(=C\C=C2/CCC[C@]3(C)[C@@H]([C@H](C)CCCC(C)(C)O)CC[C@@H]23)C[C@@H](O)C[C@@H]1O [1α,25-DHCC, 1α,25-dihydroxycholecalciferol, reference compound]			10^-8 to 10^-7 M	induce differentiation and maturation	
C=C1/C(=C\C=C2/CCC[C@]3(C)/C(=C/CCCC(C)(C)O)CC[C@@H]23)C[C@@H](O)C[C@@H]1O [compound 28]	moderate	rather weakly	10^-8 to 10^-7 M	induce differentiation and maturation	as potent as the known 1α,25-DHCC
C=C1/C(=C\C=C2/CCC[C@]3(C)/C(=C\CCCC(C)(C)O)CC[C@@H]23)C[C@@H](O)C[C@@H]1O [compound 21]	moderate	rather weakly	10^-8 to 10^-7 M	induce differentiation and maturation	3-5 times

Further lines, with some results ahead:

VDR-affinity [2]	binding to the DBP [3]	SMILES	concentration of optimum differentiating effect [1]	induction of differentiation and maturation of HL-60 cells [1]	NBT-reduction inducing capacity relative to the known 1α,25-DHCC [1]
weak	rather weakly	C=C1/C(=C\C=C2/CCC[C@@]3(C)[C@H]2CC[C@@]32C[C@H]2CCCC(C)(C)O)C[C@@H](O)C[C@@H]1O [compound 36]	10^-8 to 10^-7 M	induce differentiation and maturation	about 10 times
high	rather weakly	C=C1/C(=C\C=C2/CCC[C@@]3(C)[C@H]2CC[C@@]32C[C@@H]2CCCC(C)(C)O)C[C@@H](O)C[C@@H]1O [compound 32]	10^-8 to 10^-7 M	induce differentiation and maturation	3-5 times
